According to patent US20180193414A1, “COMPOSITIONS AND METHODS FOR TREATING NEUROLOGICAL DISORDERS” (Coda Biotherapeutics, Inc., priority 2015, published 2018):

Legend:
[1] = target: T1, human α-1 GlyRM(F207A+A288G) (Homo sapiens, UniProt P23415, A316G/F235A); experiment: Mechanical withdrawal threshold (von Frey, up-down method) in spared nerve injury (SNI) model; type: in vivo, mice
T1 construct: host or cells: mouse dorsal horn neurons transduced in vivo with the AAV vector
T1 sequence (P23415 29-457 F235A/A316G): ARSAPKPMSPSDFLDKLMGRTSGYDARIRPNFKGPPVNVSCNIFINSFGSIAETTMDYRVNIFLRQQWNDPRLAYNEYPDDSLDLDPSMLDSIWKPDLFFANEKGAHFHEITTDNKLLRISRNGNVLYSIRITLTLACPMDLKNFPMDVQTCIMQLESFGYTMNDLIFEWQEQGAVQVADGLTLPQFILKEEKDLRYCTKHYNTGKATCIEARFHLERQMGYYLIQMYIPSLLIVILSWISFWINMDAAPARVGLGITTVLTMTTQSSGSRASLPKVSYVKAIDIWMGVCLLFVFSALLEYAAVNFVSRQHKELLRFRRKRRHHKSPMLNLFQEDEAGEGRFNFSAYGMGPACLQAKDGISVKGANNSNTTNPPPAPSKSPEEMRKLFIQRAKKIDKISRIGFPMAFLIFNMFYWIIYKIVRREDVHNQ
Source text: The expression cassette containing a human synapsin-1 (hSYN) promoter driving expression of the human α-1 GlyRM(F207A+A288G)-FLAG cDNA was constructed using standard molecular biology techniques (see also, FIG. 5 and SEQ ID NO:1 for description of the vector). This cassette was subcloned into a self-complementary AAV bacmid, purified, transfected into Sf9 insect cells to produce recombinant bacuvlovirus, and then amplified. Sf9 cells were double infected using the amplified recombinant baculovirus containing the hSYN-GlyRM cassette and another recombinant baculovirus containing the Rep and AAV6(Y705+731F+T492V) Cap genes to produce recombinant AAV vectors. These vectors were purified, viral titer was determined using qPCR (2.15e^13 vg/ml), and SDS-PAGE was used to verify the purity of AAV vectors (Virovek).
A dorsal hemilaminectomy was made at the level of the lumbar enlargement to expose two segments (about 1.5-2 mm) of lumbar spinal cord, after which the dura mater was incised and reflected. The viral solution was loaded into a glass micropipette (prefilled with mineral oil). The micropipette was connected to a manual micro-injector mounted on a stereotactic apparatus. The viral solution was targeted to the dorsal horn (left side). Along the rostro-caudal axis within the exposed region, 6 injections of 240 nl each were performed, in an equidistant linear fashion. After each injection, 1 min of resting time was observed and then the muscle layer was sutured, the skin closed with staples, and the animals were allowed to recover with heated-pad before they were returned to their home cages. Animals were perfused for histological analysis after the last behavior test.
To produce mechanical hypersensitivity in a model that mimics a neuropathic pain condition, the spared nerve injury (SNI) model, a validated model of mechanical allodynia was used (Shields et al., 2003, The Journal of Pain, 4, 465-470). This model was produced by the sectioning of the common peroneal and the sural nerves and isolating the tibial branch (see FIG. 7). Mechanical withdrawal threshold was assessed by placing mice on an elevated wire-mesh grid and stimulating the plantar surface of the hindpaw with von Frey filaments. The up-down method of Chaplan & Yaksh was used to determine mechanical thresholds before the spinal cord injection of the AAV-GlyRM. […] The hindpaw ipsilateral and contralateral to the vector injection was tested. […] Motor coordination was tested using an accelerating rotarod (Stoelting, USA) at a maximum speed of 33 rpm. The duration that the mouse spent on the rotarod was recorded, with a cut-off at 300 sec. Each mouse went through three training trials and was tested two hours later. Subsequently, all mice received a single IP injection of ivermectin (15 mg/kg or 10 mg/kg) and mechanical thresholds were again tested using the up-down method at 1, 2, 5, 7, and 13 days post SNI. […] The reversal lasted for at least 5 days. […] Animals were then perfused for histology.

GLYR(F207A/A288G) = target: T2, GLYR(F207A/A288G) (Homo sapiens, UniProt P23415, A316G/F235A); experiment: Pain and anxiety behavioral assays in rodent models of chronic pain (CCI or SNI); type: in vivo; conditions: rodents with CCI or SNI, intraganglionic or intrathecal AAV6 GlyR(F207A/A288G) vector; 0.1-10.0 mg/kg per day
T2 construct: expressed in transfected cells; host or cells: rodent dorsal root or trigeminal ganglion neurons transduced in vivo with AAV6 vectors
T2 sequence (P23415 29-457 F235A/A316G): T1 sequence (P23415 29-457 F235A/A316G)
Source text: Day 0: Chronic pain is induced in rodent trigeminal ganglia or dorsal root ganglia using an established peripheral nerve injury method such as the chronic constriction injury (CCI, CO/CFA) or spared nerve injury (SNI) models. See Bennett & Xie. Pain. 1988, Decosterd & Woolf Pain. 2000, and Imamura, Kawamoto, & Nakanishi. Exp. Brain Res. 1997. In some instances, nerve injury may occur after viral vector injection.
Day 7: Intraganglionic or intrathecal injection of 10^8-10^10 vector genomes of AAV6(Y705F+Y731F+T492V)-HSYN-GLYR(F207A/A288G)-FLAG or AAV6-GLY(HSYN-GLYR(F207A/A288G)-FLAG in a volume of approximately 1.0-10 μL is performed in one or multiple dorsal root ganglia or trigeminal ganglia using published methods. See Vit, Ohara, Sundberg et al. Mol Pain. 2009 and Towne, Fischer, Kostic, et al. J Neurosci Methods. 2011, and Pertin, et al. Mol Pain. 2009.
Weeks 2-12 post CCI or SNI: Ivermectin is administered via oral gavage (P0), intraperitoneal injection (IP), subcutaneous injection (SC), or in drinking water for a final dose of 0.1-10.0 mg/kg per day. Pain and anxiety behavioral assays are performed to quantify level of analgesia using established nociception assay including operant assays, mechanical allodynia/hyperalgesia via Von Frey filaments, thermal allodynia/hyperalgesia via Hargreaves method, or anxiety behaviors via elevated plus maze. See review Odd-Geir Berge. […]

[2] = target: T3, alpha 1 GlyR(F207A-A288G) (Homo sapiens, UniProt P23415, A316G/F235A); experiment: Thermal withdrawal latency assay (infrared laser on shaved cheek) after trigeminal ganglion AAV injection; type: in vivo, Sprague-Dawley rats
T3 construct: expressed in transfected cells; host or cells: trigeminal ganglion neurons of adult Sprague-Dawley rats, transduced in vivo with AAV
T3 sequence (P23415 29-457 F235A/A316G): T1 sequence (P23415 29-457 F235A/A316G)
Description: On day 0, bilateral trigeminal ganglion injections of 10 microliters AAV vector containing the alpha 1 GlyR(F207A-A288G) transgene were performed in adult Sprague-Dawley rats. Two months following AAV injections, a single IP injection of ivermectin 10 mg/kg was administered to rats. The following day, rats were prepared for the thermal latency assay by shaving the fur off of their cheek, up to but not including the whisker pad. They were then placed in a 2.75 inch diameter×8 inch clear polycarbonate cylinder and allowed to acclimate to the environment. The rats naturally positioned themselves so their snout is just outside of the cylinder opening. Under video monitoring, the rats were then exposed to the beam of a 2W, infrared (808 nm) laser illumination focused to project a target size of approximately 1 mm×0.5 mm on the shaved cheek area. The rats then responded to the heat generated by the laser with an abrupt head position change (withdrawal reflex). The sequence was then repeated up to 10 trials on each side. The latency between the laser illumination onset and the head withdrawal reflex was measured from the video with video editing software allowing for frame by frame analysis.

hM4D(Gi) DREADD = target: T4, hM4D(Gi) DREADD (Homo sapiens, UniProt P08173, A203G/Y113C); conditions: cited from earlier work
T4 construct: HA (N); host or cells: primary afferent nociceptors of female C57BL/6 mice transduced in vivo (intraneural AAV6-hSyn-HA-hM4D(Gi)-IRES-mCitrine), as reported by Iyer et al. 2016
T4 sequence (P08173 1-479 Y113C/A203G): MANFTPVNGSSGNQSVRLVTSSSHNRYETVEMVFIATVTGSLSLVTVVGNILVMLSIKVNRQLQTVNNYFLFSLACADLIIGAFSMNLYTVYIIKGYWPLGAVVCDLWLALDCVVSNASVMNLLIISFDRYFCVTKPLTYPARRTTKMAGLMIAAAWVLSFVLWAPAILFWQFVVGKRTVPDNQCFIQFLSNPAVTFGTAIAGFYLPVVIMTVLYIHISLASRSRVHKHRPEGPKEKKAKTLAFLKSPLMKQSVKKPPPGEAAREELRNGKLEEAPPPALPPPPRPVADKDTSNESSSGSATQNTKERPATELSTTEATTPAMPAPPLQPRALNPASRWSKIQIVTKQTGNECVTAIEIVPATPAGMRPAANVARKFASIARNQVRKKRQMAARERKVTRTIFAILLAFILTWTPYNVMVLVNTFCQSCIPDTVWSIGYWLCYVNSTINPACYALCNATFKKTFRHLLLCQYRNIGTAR

| Compound | duration of analgesia in the SNI model ([1]; mice injected with SWB001, single IP injection of ivermectin (15 mg/kg) (FIG. 7)) | mechanical hypersensitivity (mechanical thresholds, von Frey) ([1]; mice with AAV-GlyRM injected into dorsal horn, SNI, ipsilateral hindpaw, single IP injection 15 mg/kg) | mechanical thresholds after repeat dose ([1]; mice, SNI, AAV-GlyRM, 10 mg/kg IP on the 13th day, after thresholds had returned to post-injury baseline) | mechanical thresholds during follow-up after repeat dose ([1]; mice, SNI, AAV-GlyRM, followed for 48 hours after 10 mg/kg IP) | duration of the reversal of mechanical hypersensitivity ([1]; mice, SNI, AAV-GlyRM, single IP injection 15 mg/kg) | mechanical threshold on the contralateral side (absence of vector) ([1]; mice, contralateral hindpaw without vector, single IP injection 15 mg/kg) | improvement in pain related behaviors or anxiety over controls (GLYR(F207A/A288G)) | average thermal withdrawal latency ([2]; rats two months after bilateral trigeminal ganglion AAV injection, day after single IP 10 mg/kg, pre-treatment average 2.69 seconds) | hypoalgesic threshold shift in thermal pain sensitivity ([2]; rats, post versus pre IP 10 mg/kg) | mechanical withdrawal thresholds (hM4D(Gi) DREADD; hM4D+ mice (AAV6-hSyn-HA-hM4D(Gi)-IRES-mCitrine intraneural), intraperitoneal administration) | Hargreaves thresholds (thermal sensation) (hM4D(Gi) DREADD; hM4D+ mice, after administration) |
| --- | --- | --- | --- | --- | --- | --- | --- | --- | --- | --- | --- |
| ivermectin | 7 to 10 days | complete reversal of the mechanical hypersensitivity | recovery to non-injury baseline thresholds | thresholds remained at baseline | at least 5 days | no measurable effect | 10%-500% | 5.19 s | 92.9% | – | – |
| C[N+]1([O-])CCN(C2=Nc3cc(Cl)ccc3Nc3ccccc32)CC1 [CNO, clozapine-N-oxide] | – | – | – | – | – | – | – | – | – | increased mechanical withdrawal thresholds | Strong inhibition of Hargreaves thresholds |
